Measurements from patent publication US5106853A, “Oxadiazole and its salts, their use in treating dementia” (Merck Sharp & Dohme, Ltd., priority 1989, dated 1992).
Where two headings read alike, the source gives them in different places.

Experiments:
[1] = biological target: muscarinic acetylcholine receptors; experiment: NMS/OXO-M displacement: [3H]NMS and [3H]OXO-M Kapp (method of Br. J. Pharmacol. (1988), 93, 437-445); format: binding; settings: for Kd: Kapp = corrected dissociation constant allowing for ligand occupancy
Protocol: A. By the method disclosed in Br. J. Pharmacol. (1988), 93, 437-445 were determined the NMS/OXO-M data for the compound (I): [^3 H]NMS Kapp =0.025 μM; [^3 H]OXO-M Kapp =0.0017 μM; ratio NMS/OXO-M=15; (Kapp =corrected dissociation constant allowing for ligand occupancy).

M-1 receptor = biological target: T1, M-1 receptor (Rattus norvegicus, UniProt P08482); experiment: Functional selectivity, rat superior cervical ganglion (methods of J. Med. Chem. (1987), 30, 969-975); format: cell-based; settings: mean ± S.D. (n = 5)
T1 construct: from tissue
T1 sequence (P08482 1-460): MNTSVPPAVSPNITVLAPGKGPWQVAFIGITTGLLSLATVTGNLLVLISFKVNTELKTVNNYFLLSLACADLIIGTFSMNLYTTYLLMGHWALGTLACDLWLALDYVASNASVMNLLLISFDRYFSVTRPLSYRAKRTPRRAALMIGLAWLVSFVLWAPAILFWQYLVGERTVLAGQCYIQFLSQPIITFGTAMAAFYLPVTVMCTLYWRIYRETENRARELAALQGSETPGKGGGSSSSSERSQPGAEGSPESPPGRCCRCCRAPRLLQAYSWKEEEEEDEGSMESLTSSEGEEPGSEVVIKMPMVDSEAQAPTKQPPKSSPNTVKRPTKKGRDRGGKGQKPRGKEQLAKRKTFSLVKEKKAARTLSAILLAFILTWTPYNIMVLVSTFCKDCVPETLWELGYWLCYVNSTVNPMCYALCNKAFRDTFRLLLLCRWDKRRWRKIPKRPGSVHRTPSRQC
Protocol: (§1) B. By the methods disclosed in J. Med. Chem. (1987), 30, 969-975 was determined the functional selectivity of compound (I): […]

M-2 receptor = biological target: T2, M-2 receptor (Cavia porcellus, UniProt H0VRN8); experiment: Functional selectivity, guinea-pig atrium (methods of J. Med. Chem. (1987), 30, 969-975); format: cell-based
T2 construct: from tissue; host or cells: guinea-pig atrium
T2 sequence (H0VRN8 1-466): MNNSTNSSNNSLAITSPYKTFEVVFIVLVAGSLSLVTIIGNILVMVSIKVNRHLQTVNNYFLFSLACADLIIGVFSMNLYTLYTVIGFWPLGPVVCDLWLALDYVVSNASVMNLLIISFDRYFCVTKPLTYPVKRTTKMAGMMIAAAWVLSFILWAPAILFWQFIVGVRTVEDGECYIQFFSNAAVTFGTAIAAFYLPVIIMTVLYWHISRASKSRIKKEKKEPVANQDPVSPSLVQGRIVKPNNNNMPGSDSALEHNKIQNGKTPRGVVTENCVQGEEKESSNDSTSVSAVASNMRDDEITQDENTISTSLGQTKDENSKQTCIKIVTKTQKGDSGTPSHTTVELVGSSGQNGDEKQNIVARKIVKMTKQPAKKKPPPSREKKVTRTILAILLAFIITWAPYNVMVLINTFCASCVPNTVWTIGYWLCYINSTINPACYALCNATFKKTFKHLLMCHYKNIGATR
Protocol: as §1

M-3 receptor = biological target: T3, M-3 receptor (Cavia porcellus, UniProt H0W1Z3); experiment: Functional selectivity, guinea-pig myenteric plexus/longitudinal muscle strip (methods of J. Med. Chem. (1987), 30, 969-975); format: cell-based
T3 construct: from tissue; host or cells: guinea-pig myenteric plexus/longitudinal muscle strip
T3 sequence (H0W1Z3 1-590): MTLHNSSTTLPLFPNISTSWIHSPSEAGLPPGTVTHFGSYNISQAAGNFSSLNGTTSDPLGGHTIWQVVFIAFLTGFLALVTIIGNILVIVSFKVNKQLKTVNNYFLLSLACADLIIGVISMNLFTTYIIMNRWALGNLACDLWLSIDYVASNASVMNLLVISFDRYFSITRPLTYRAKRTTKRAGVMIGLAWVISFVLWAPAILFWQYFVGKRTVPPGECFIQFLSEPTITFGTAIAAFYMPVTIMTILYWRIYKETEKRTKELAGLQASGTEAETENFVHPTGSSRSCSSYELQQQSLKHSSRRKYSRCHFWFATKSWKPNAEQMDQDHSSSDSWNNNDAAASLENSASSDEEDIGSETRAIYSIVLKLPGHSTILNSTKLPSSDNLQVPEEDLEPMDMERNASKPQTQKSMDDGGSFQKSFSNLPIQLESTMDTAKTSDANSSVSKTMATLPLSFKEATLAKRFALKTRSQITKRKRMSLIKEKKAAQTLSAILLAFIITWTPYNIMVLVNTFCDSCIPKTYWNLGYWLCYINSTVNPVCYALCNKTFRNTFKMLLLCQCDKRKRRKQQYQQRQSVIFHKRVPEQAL
Protocol: as §1

[2] = relative maximum, read-out: Rel. Max.

`C1CC1c1noc([C@H]2CN3CC[C@H]2C3)n1` [compound (I), (3R, 4R)-3-(3-cyclopropyl-1,2,4-oxadiazol-5-yl)-1-azabicyclo[2.2.1]heptane] was tested. Which Kd ([1]; radioligand [3H]NMS, read-out: [3H]NMS Kapp) did it give?
Its Kd is 25 nM.

And the Kd ([1]; radioligand [3H]OXO-M, read-out: [3H]OXO-M Kapp)?
Its Kd is 1.7 nM.

What about the “ratio NMS/OXO-M” value ([1]; ratio of Kapp values) of the same molecule?
Its value is 15.

What about the EC50 (M-1 receptor) of the same molecule?
The EC50 was 63.1 nM.

And the Emax (M-1 receptor; [2])?
Its Emax is 55 ± 10%.

What about the Kb (M-2 receptor; 95% confidence limits 7.80-8.20, n = 10, slope of Arunlakshana-Schild plot not significantly different from unity, read-out: pA2 (converted)) of the same molecule?
The Kb was 10 nM.

And the Emax (M-2 receptor; [2])?
The Emax was 0%.

And the Kb (M-3 receptor; 95% confidence limits 7.90-8.40, n = 12, slope of Arunlakshana-Schild plot not significantly different from unity, read-out: pA2 (converted))?
Its Kb is 7.08 nM.

And the Emax (M-3 receptor; [2])?
Its Emax is 0%.
